The subject of data set [1] is PK1 cells exposed to TPrP. In kind it is cell-based.
For data set [2], the system named is Cells exposed to TPrP. The data set can be described thus: cells. Particulars: read-out: Viability EC50.
The test system of data set [3] is PK1 neuroblastoma cells treated with TPrP. Description: cells. In kind it is cell-based. Particulars: for EC50: Neuroblastoma cell.
Data set [4] shares this test system. The data set can be described thus: cells. In kind it is cell-based. Particulars: Neuroblastoma cell.
For data set [5] the following is noted: in vivo; cited from earlier work.
Data set [6] concerns Murine stem-cell derived neurons. The data set can be described thus: Cellular PD/synucleinopathy model, PFFs-seeded murine neurons, neurite length. The data set is classed as cell-based. Particulars: FIG. 14. Here is the method: Murine stem-cell derived neurons (8 days post-differentiation) were seeded with PFFs (A, B: 4 μg/ml; C, D: 3 μg/ml) and treated with the test compounds at the dose indicated, or with the vehicle DMSO, during the last 2 days of differentiation. Control cells were not PFFs-seeded. Cells were photographed by phase contrast microscopy. Neurite length was quantified using the NeuronJ plugin of ImageJ (NIH), statistical analysis was done in pairs by comparing compound-treated cells with the DMSO control (student's t-test, Prism8). Mean values and SEMs of 4 fields per each condition are shown. Each field contained approximately 50 to 100 neurons. Images shown correspond to a representative area of one field. ****P<0.0001; ***P<0.001; **P<0.01; *P<0.05; ns=not significant.

In a further data set the target is PARP-1 (Homo sapiens, UniProt P09874). Description: PARP1 chemiluminescent assay kit (BPS Bioscience). The data set is classed as biochemical. Conditions: FIG. 15. How it is done:
ABT-888 is a known PARP1 inhibitor serving as pharmacological control for the assay. […] The assay was performed using the BPS Bioscience PARP1 chemiluminescent assay kit according to the manufacturer's instructions.

In data set [7] the test system is Primary mouse cortical neurons. In kind it is cell-based.
The target in another data set is T1, NAMPT (Homo sapiens, UniProt P43490).
T1 construct: purchased Abcam ab221819
T1 sequence (P43490 whole entry): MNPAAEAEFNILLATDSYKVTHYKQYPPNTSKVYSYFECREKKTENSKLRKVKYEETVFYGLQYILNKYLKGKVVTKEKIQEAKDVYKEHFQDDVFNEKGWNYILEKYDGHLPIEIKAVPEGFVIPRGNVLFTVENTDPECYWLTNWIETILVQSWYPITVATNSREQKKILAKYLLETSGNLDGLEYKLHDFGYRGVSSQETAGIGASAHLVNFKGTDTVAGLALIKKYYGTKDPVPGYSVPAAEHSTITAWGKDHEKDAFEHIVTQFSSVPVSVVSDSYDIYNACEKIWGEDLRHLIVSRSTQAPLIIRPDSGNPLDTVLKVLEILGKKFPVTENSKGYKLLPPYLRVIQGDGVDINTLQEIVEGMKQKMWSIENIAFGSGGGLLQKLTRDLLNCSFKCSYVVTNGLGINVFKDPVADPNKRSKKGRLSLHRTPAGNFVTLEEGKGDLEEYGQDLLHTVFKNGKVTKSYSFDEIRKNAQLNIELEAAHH
The data set can be described thus: Colorimetric NAMPT activity assay (Abcam, ab221819). The data set is classed as biochemical. Conditions: tested at 5 μM or 20 μM. Here is the method: Compounds were tested in a colorimetric NAMPT activity assay (Abcam, ab221819). Each data point represents a duplicate sample. […] Compounds were tested at 5 μM (A) or 20 μM (B).

For data set [8], the system named is PK1 cells treated with TPrP. In kind it is cell-based.
Data set [9] deals with T2, VEGFR-1 (Homo sapiens, UniProt P17948). Particulars: subtype not given; cited from earlier work.
T2 sequence (P17948 27-1338, species assumed): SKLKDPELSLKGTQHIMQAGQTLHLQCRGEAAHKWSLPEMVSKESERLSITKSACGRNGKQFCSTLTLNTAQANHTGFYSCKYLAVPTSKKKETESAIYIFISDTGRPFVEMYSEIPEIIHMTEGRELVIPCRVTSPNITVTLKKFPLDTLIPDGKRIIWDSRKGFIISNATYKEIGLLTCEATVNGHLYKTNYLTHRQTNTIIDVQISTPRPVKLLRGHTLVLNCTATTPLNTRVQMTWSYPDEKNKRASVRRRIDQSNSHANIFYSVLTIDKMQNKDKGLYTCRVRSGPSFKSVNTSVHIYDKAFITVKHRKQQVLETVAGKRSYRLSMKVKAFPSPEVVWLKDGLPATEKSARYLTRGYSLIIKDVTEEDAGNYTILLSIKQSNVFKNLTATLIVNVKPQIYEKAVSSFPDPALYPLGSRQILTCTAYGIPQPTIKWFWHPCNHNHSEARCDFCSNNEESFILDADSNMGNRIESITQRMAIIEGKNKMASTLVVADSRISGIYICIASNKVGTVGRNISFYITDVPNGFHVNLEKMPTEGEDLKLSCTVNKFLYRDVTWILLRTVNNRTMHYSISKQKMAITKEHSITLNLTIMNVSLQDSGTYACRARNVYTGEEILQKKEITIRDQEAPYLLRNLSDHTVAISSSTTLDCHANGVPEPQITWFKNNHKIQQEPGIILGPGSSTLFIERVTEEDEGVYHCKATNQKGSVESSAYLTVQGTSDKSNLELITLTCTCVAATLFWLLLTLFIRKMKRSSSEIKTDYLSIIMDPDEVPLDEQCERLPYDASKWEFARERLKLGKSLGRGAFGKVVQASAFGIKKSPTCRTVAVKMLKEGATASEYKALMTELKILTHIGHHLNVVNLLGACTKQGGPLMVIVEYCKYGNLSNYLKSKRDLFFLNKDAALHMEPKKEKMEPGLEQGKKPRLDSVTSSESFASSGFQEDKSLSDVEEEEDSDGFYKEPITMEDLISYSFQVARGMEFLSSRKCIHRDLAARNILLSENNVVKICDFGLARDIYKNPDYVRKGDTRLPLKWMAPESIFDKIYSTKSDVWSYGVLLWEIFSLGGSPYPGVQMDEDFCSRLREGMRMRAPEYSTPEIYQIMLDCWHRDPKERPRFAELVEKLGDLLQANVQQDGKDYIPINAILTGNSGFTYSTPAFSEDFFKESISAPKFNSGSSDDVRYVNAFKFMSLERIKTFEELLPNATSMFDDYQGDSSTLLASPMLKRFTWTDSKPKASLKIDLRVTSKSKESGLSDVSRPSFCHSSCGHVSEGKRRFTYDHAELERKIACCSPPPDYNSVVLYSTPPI
A further data set concerns GABAA R subtypes. Particulars: relative to DMCM; cited from earlier work.
Data set [10] concerns Human stem cell-derived neurons. Description: Cellular PD model, α-synuclein PFFs-seeded human neurons. The data set is classed as cell-based. Particulars: 2 μM, PFFs 50 μg/ml, 17 days. How it is done: Human stem cell-derived neurons (30 days post-differentiation) were seeded with 50 μg/ml preformed α-synuclein fibrils (PFFs), treated with DMCM-10049 at 2 μM or vehicle, and fixed 17 days later for analysis. Control cells were not PFFs-seeded. A: Dendritic spines were labeled with the marker F-actin using Phalloidin-iFluor 488 (Abcam). B: pα-syn* (red, antibody GTX50222, GeneTex)+DAPI (blue) staining. Quantification was done using ImageJ (NIH), statistical analysis with one way ANOVA (Prism7). Mean values and SDs of 8 images (A) or 6 images (B) per each condition are shown. ****P<0.0001; ***P<0.001; ns=non significant.

Data set [11] has as its target T2, VEGFR-1. Description: VEGFR inhibition of vatalanib analogs. In kind it is biochemical. Conditions: relative to vatalanib.
In data set [12] the test system is Cells exposed to TPrP. Conditions: read-out: Viability EC50.
Where [13] appears, read: read-out: EC50 (TPrP toxicity rescue / neuroprotection).

Entries after “also recorded” stand apart in the source; their conditions may differ. Read-outs that look alike come from different tables or passages of the source.

The IC50 is the midpoint of a concentration-inhibition curve.

Sequence of PARP-1 (P09874 whole entry): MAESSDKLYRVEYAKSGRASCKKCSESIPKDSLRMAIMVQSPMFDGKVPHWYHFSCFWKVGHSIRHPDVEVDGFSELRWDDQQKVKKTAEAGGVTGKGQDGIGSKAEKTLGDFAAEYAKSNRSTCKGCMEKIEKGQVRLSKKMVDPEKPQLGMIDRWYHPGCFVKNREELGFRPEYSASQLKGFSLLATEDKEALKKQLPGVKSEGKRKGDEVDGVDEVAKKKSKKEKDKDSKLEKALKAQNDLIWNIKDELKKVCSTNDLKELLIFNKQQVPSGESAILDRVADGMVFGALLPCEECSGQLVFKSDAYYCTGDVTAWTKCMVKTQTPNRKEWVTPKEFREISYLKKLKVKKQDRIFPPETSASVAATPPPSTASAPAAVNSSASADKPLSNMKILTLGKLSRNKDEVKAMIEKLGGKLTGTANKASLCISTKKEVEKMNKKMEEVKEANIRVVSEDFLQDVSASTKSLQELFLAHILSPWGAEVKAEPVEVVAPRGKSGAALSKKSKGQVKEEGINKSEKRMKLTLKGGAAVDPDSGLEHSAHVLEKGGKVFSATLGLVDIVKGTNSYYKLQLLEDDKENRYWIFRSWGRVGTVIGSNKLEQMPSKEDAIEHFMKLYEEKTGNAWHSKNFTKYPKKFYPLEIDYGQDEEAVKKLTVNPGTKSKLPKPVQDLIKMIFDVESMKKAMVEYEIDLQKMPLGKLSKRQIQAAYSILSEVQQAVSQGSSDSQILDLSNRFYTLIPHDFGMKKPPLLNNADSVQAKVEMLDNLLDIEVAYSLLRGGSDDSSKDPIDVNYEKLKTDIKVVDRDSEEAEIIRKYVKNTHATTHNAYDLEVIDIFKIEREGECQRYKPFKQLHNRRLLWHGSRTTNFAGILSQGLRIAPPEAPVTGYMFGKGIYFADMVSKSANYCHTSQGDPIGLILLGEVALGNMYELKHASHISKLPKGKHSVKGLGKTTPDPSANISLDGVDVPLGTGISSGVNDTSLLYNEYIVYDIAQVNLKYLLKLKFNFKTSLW

For `CCOC(=O)c1ncn2c1CN(C)C(=O)c1cc(F)ccc1-2` [flumazenil], the “protection against TPrP toxicity” value in data set [1] is recorded as “neither rescued TPrP-induced toxicity; also recorded: absence of protection”.
In the case of `Clc1ccc(Nc2nnc(Cc3ccncc3)c3ccccc23)cc1` [Vatalanib, reference compound], the EC50 amounted to 45 nM in the data set with Cells exposed to TPrP [2]; 39.9 nM in data set [3] (setting [13]); 40 nM in [3] (read-out: Viability EC50); 195 nM in data set [4] (read-out: EC50 (NAD assay)); 195 nM in [4] (read-out: NAD EC50). For the same molecule, in data set [5], the oral bioavailability result is “high”. Besides, the “loss of neurites induced by PFFs exposure” value (shortened to “loss of neurites induced”) in data set [6] is recorded as “prevent loss of neurites”.
On to `Cc1ccc(-c2nnc3c4ccccc4c(C)nn23)cc1S(=O)(=O)N1CCOCC1` [SR5-22843], for which the EC50 was found to be 30 nM in [3] (read-out: Viability EC50) and 219 nM in data set [4] (read-out: NAD EC50). The PARP-1 inhibition entry on PARP-1 was “absence of PARP-1 inhibition”.
Consider `CCc1c(C(=O)OC)ncc2[nH]c3cc(OC)c(OC)cc3c12` [SR1-75869, DMCM, reference compound], for which, in [7], the “neuritic breakdown and neuronal vacuolation induced by TPrP” value is given as “suppressed”; the “rescue of TPrP-induced toxicity (cell viability)” value is “rescues TPrP-induced toxicity”. In addition, the EC50 in data set [3] (read-out: Viability EC50) is 120 nM. In data set [4] (read-out: NAD EC50), the EC50 turned out to be 749 nM. Also, the “Activation of NAMPT” value on NAMPT was “not”. In addition, the “excessive protein ADP ribosylation induced by TPrP” value in data set [8] is listed as “mitigates excessive protein ADP ribosylation”.
As for `COc1cc(Nc2nnc(Cc3ccncc3)c3ccccc23)cc(OC)c1` [SR1-151915], the figures for the EC50 in [3] (setting [13]), in data set [3] (read-out: Viability EC50) and in data set [4] (read-out: NAD EC50) were 71.4 nM, 71.4 nM and 280 nM, respectively. The IC50 on VEGFR-1 [9] was > 1000 nM.
For `COc1ccc(-c2cc(=O)c3c(OC)c(OC)c(OC)c(OC)c3o2)cc1OC` [SR-01000712262, 2-(3,4-dimethoxyphenyl)-5,6,7,8-tetramethoxy-4H-chromen-4-one], the EC50 was found to be 580 nM in data set [3] (read-out: Viability EC50) and 664 nM in data set [4] (read-out: NAD EC50). Further, the PARP-1 inhibition entry on PARP-1 was “absence of PARP-1 inhibition”. Moreover, in data set [6], the “loss of neurites induced” value is recorded as “prevent loss of neurites”. The “Activation of NAMPT” value on NAMPT is “not”.
On to `CCc1c(C(=O)NN)ncc2[nH]c3cc(OC)c(OC)cc3c12` [DMCM-10049], for which the EC50 with Cells exposed to TPrP [2] is ~500 nM. Also, the PARP-1 inhibition result on PARP-1 is “absence of PARP-1 inhibition”. Besides, in the data set with GABAA R subtypes, the “reduced potency for most GABAA R subtypes” value is “over 100 ×”. Besides, in data set [10], the “dendritic spines (F-actin)” value is listed as “preserves dendritic spines” and the “pα-syn* levels” value is on record as “reduces pα-syn* levels”.
Take NAD: the “neuritic breakdown and neuronal vacuolation induced by TPrP” value in data set [7] was “suppressed”.
In the case of `CC(=O)c1cccc(Nc2nnc(Cc3ccncc3)c3ccccc23)c1` [SR1-134005], the EC50 in the data set on Cells exposed to TPrP [2] was found to be 20 nM; in data set [3] (setting [13]) it was 6.3 nM; in data set [3] (read-out: Viability EC50) it was 6.3 nM; in data set [4] (read-out: NAD EC50) it was 105 nM. The “fold more potent than vatalanib as a neuroprotective agent” value in [3] was “more than 6 fold”. The PARP-1 inhibition entry on PARP-1 is “absence of PARP-1 inhibition”. Further, the “Activation of NAMPT” value at NAMPT is reported as “Activation of NAMPT”. Further, the “fold less potent than vatalanib at VEGFR-1” value at VEGFR-1 [11] was determined as 13 fold.
Consider `O=C(NCCCn1ccnc1)c1cnn2c(C(F)(F)F)cc(-c3ccccc3)nc12` [SR1-293229], for which the EC50 is 1.5 nM in the data set on Cells exposed to TPrP [2], 1.9 nM in data set [3] (read-out: Viability EC50), 6.8 nM in [4] (read-out: NAD EC50) and 2 nM in the data set with Cells exposed to TPrP [12]. Besides, at PARP-1, the PARP-1 inhibition result was “absence of PARP-1 inhibition”. The “loss of neurites induced” value in data set [6] was “prevent loss of neurites”. For the same molecule, the “Activation of NAMPT” value at NAMPT is “not”.
